Experimental data from paper PMC5849192, “First-in-human phase 1 study of the BTK inhibitor GDC-0853 in relapsed or refractory B-cell NHL and CLL” (Oncotarget, 2018).
Like-named read-outs stand apart in the source and are kept apart here.

What was measured:
[1] = Plasma pharmacokinetics of GDC-0853 on day 1 and day 15 (LC-MS/MS); assay type: in vivo, human; details: for Day 15 Accumulation Ratio Mean (%CV): AUC0-24 day 15 relative to day 1; for Day 1 AUC0-24 Mean (%CV) / half-life / Cmax / Tmax / AUC(0-t) / AUC(0-inf): plasma; for half-life / Cmax / Tmax / AUC(0-t) / AUC(0-inf): human; for Cmax / Tmax: po; for AUC(0-t): read-out: Day 15 AUC0-24 Mean (%CV); for AUC(0-inf): read-out: Day 1 AUC0-inf Mean (%CV)
Description: (§1) PK parameters were calculated on study days 1 and 15 based on the plasma concentration of GDC-0853 according to the model independent approach. PK (plasma) samples were collected at predose, 0.5, 1, 2, 3, 4, 6, 8, and 24 h post-dose, and analyzed at a sponsor-designated laboratory using a validated liquid chromatography–tandem mass spectrometry (LC-MS/MS) method. CCL3 was determined in plasma samples using the Erenna Immunoassay System (Singulex Inc, Alameda, CA) with a fluorescently labeled CCL3 detection antibody (P&D System; AF270-NA). Mutational assessment of BTK mutation status was performed according to methods previously reported. Positivity was considered when 3% or more of the cells derived from blood CD19 selected B-cells were positive for C481S mutation in a CLIA approved laboratory.

CCL3 = assay: Plasma CCL3 concentrations (pharmacodynamic marker, Erenna immunoassay); assay type: in vivo, human; details: for Reduction in CCL3, single patient: 24 h after initial dose
Description: as §1
The data cut-off date for all analyses was Jun 1, 2015. All patients who received at least 1 dose of GDC-0853 were included in both safety and clinical activity analyses. Preliminary assessment of anti-tumor activity of GDC-0853 was a secondary objective of the study. […] The overall response rate (ORR) was determined as responder patients (complete response [CR] and partial response [PR], or partial response with lymphocytosis [PR-L] for CLL patients) relative to all patients in the study. Duration of objective response was calculated as the time from the first occurrence of a documented objective response until the time of relapse, death from any cause, or the date of the last tumor assessment prior to the data cut-off (censored). Anti-tumor activity of GDC-0853 was determined by the change in the sum of the products of the diameters (SPD) of the target lesions relative to baseline, estimated by computed tomography (CT) scans. Response for CLL was determined using the IWCLL guidelines. and also included PR-L as described by Cheson et al. For NHL, response was based on physical examinations and CT scans using modified response criteria for NHL [37]. PK concentrations are expressed as mean ± standard deviation. Hematology (neutrophils, platelets, lymphocytes, and hemoglobin) and plasma analytes are presented either as absolute concentrations (median ± interquartile range or mean ± 95% CI) or as a percent change from baseline (visit cycle 1, day 1). Response duration is reported as median ± IQR.

Structure (SMILES): C[C@H]1CN(C2COC2)CCN1c1ccc(Nc2cc(-c3ccnc(N4CCn5c(cc6c5CC(C)(C)C6)C4=O)c3CO)cn(C)c2=O)nc1 [GDC-0853]
- Day 15 Accumulation Ratio Mean (%CV) ([1]; 100 mg (n = 6) QD): 1.78 (58.4)
- Day 1 AUC0-24 Mean (%CV) ([1]; 100 mg (n = 6), oral): 1.01 (77.4) hr^*uM
- Day 15 Accumulation Ratio Mean (%CV) ([1]; 200 mg (n = 9) QD): 1.44 (77.9)
- Day 1 AUC0-24 Mean (%CV) ([1]; 200 mg (n = 9), oral): 3.83 (76.5) hr^*uM
- Day 15 Accumulation Ratio Mean (%CV) ([1]; 400 mg (n = 9) QD): 1.91 (102)
- Day 1 AUC0-24 Mean (%CV) ([1]; 400 mg (n = 9), oral): 10.5 (65.8) hr^*uM
- Exposure (AUC0-24) increase on day 15 relative to day 1, mean accumulation ratio ([1]; continual QD dosing, across cohorts): 1.44 to 1.91 fold
- half-life ([1]; oral, across 100, 200, 400 mg cohorts, read-out: Mean T1/2 from day 1): 6.62 to 13.7 h
- Cmax ([1]; 100 mg, 100 mg (n = 6) QD, oral, read-out: Day 15 Cmax Mean (%CV)): 354 nM
- Tmax ([1]; 100 mg, 100 mg (n = 6) QD, oral, read-out: Day 15 Tmax Median (range)): 2.97 h
- Cmax ([1]; 100 mg, 100 mg (n = 6), oral, read-out: Day 1 Cmax Mean (%CV)): 180 nM
- Tmax ([1]; 100 mg, 100 mg (n = 6), oral, read-out: Day 1 Tmax Median (range)): 2.07 h
- Cmax ([1]; 200 mg, 200 mg (n = 9) QD, oral, read-out: Day 15 Cmax Mean (%CV)): 925 nM
- Tmax ([1]; 200 mg, 200 mg (n = 9) QD, oral, read-out: Day 15 Tmax Median (range)): 2.1 h
- Cmax ([1]; 200 mg, 200 mg (n = 9), oral, read-out: Day 1 Cmax Mean (%CV)): 861 nM
- Tmax ([1]; 200 mg, 200 mg (n = 9), oral, read-out: Day 1 Tmax Median (range)): 1.85 h
- Cmax ([1]; 400 mg, 400 mg (n = 9) QD, oral, read-out: Day 15 Cmax Mean (%CV)): 2100 nM
- Tmax ([1]; 400 mg, 400 mg (n = 9) QD, oral, read-out: Day 15 Tmax Median (range)): 1.05 h
- Cmax ([1]; 400 mg, 400 mg (n = 9), oral, read-out: Day 1 Cmax Mean (%CV)): 2180 nM
- Tmax ([1]; 400 mg, 400 mg (n = 9), oral, read-out: Day 1 Tmax Median (range)): 1.17 h
- Tmax ([1]; days 1 and 15, across 100–400 mg cohorts, read-out: Time of peak concentrations (median Tmax)): 1 to 3 h
- AUC(0-t) ([1]; 100 mg (n = 6) QD, oral): 1.81 µM·h
- AUC(0-inf) ([1]; 100 mg (n = 6), oral): 1.3 µM·h
- half-life ([1]; 100 mg (n = 6), oral, read-out: Day 1 T1/2 Mean (%CV) (converted)): 13.7 h
- AUC(0-t) ([1]; 200 mg (n = 9) QD, oral): 4.27 µM·h
- AUC(0-inf) ([1]; 200 mg (n = 9), oral): 5.15 µM·h
- half-life ([1]; 200 mg (n = 9), oral, read-out: Day 1 T1/2 Mean (%CV) (converted)): 6.62 h
- AUC(0-t) ([1]; 400 mg (n = 9) QD, oral): 11.7 µM·h
- AUC(0-inf) ([1]; 400 mg (n = 9), oral): 11.4 µM·h
- half-life ([1]; 400 mg (n = 9), oral, read-out: Day 1 T1/2 Mean (%CV) (converted)): 7.29 h
- Reduction in CCL3, single patient (CCL3; 1 patient with WM): −65%
- Average plasma CCL3 concentration (CCL3; CLL patients, 24 h after initial oral dose (baseline 113 pg/ml)): 28 pg/mL
- Reduction of plasma CCL3 from baseline (CCL3; CLL patients, 24 h after initial oral dose, irrespective of starting dose): ~ 67%
- Reduction in CCL3 (CCL3; NHL patients, 24 h after initial oral dose): ~ -35%
- Reduction in CCL3, single patient (CCL3; a patient with DLBCL): 0%
- CCL3 levels (CCL3; patients harboring either wild-type or C481 mutations): reduced
